Assay results from paper PMC12797170, “Potent Competitive Inhibitors of Ecto-5′-nucleotidase (CD73) based on 6‑(Het)aryl-7-deazapurine Ribonucleoside 5′‑O‑Bisphosphonates” (ACS Pharmacology & Translational Science, 2025).

Tested on: CD8+ T cells
Test: CD8+ T cell activation assay (CD25, IFN-γ, granzyme B)
Format: cell-based, human
Settings: granzyme B and IFN-γ, 60 h
Protocol: 6 CD73 inhibition partially reverses the immunosuppressive effect of adenosine generated from AMP in CD8 ^ + T cells. CD8^+ T cells were activated using CD3/CD28 activation beads in the presence of 2.5 μM EHNA, with or without 1 mM AMP and CD73 inhibitors (500 nM or 50 nM). A. CD25 expression. The percentage of CD8^+ T cells expressing the activation marker CD25 was measured by flow cytometry 60 h after activation. Data represent technical triplicates. B. Cytokine secretion. Granzyme B and IFN-γ levels in the culture supernatant were quantified by ELISA 60 h after activation. The data represent technical duplicates from two independently treated wells.
Peripheral blood was obtained from healthy donors at the Military University Hospital Prague, following informed consent. CD8+ T cells were enriched using the RosetteSep Human CD8+ T Cell Enrichment Cocktail ([…] Technologies) according to the manufacturer’s instructions and subsequently isolated by density gradient centrifugation using SepMate tubes ([…] Technologies). Residual red blood cells were lysed using a red blood cell lysis buffer (155 mM NH4Cl, 12 mM NaHCO3, 0.1 mM EDTA, pH = 7.1–7.4). The isolated CD8+ T cells were resuspended in complete RPMI and counted using an automated cell counter.
CD8+ T cells were seeded at 5 × 10^4 cells/well in 50 μL of complete RPMI in a flat-bottom 96-well plate. […] This was followed by the addition of 10 μL of a CD73 inhibitor at either 5 μM or 500 nM (experimental wells) or 10 μL of complete RPMI (control wells). Subsequently, 20 μL of 5 mM AMP was added to all wells except those serving as controls for maximal T cell activation. […]
Following incubation, supernatants were collected for quantification of IFN-γ and granzyme B using ELISA. […] Finally, stained cells were washed and analyzed using a BD LSRFortessa flow cytometer. Data were processed and analyzed using FlowJo software (version 10.8.1) and GraphPad Prism 10.
Secretion of IFN-γ and granzyme B was quantified using Human IFN-γ DuoSet ELISA and Human Granzyme B DuoSet ELISA (R&D Systems) according to the manufacturer’s instructions. […]

Cc1nc(-c2ccc3ccccc3c2)c2ccn([C@@H]3O[C@H](COP(=O)(O)CP(=O)(O)O)[C@@H](O)[C@H]3O)c2n1 [18E.7]
cytokine rescue efficacy: weakest effects

Cc1nc(-c2cccc3ccccc23)c2ccn([C@@H]3O[C@H](COP(=O)(O)CP(=O)(O)O)[C@@H](O)[C@H]3O)c2n1 [18E.6]
cytokine rescue efficacy: weakest effects
